# T1: Cytochrome P450 2A6 (Homo sapiens, UniProt P11509)
# T1 sequence (P11509 whole entry): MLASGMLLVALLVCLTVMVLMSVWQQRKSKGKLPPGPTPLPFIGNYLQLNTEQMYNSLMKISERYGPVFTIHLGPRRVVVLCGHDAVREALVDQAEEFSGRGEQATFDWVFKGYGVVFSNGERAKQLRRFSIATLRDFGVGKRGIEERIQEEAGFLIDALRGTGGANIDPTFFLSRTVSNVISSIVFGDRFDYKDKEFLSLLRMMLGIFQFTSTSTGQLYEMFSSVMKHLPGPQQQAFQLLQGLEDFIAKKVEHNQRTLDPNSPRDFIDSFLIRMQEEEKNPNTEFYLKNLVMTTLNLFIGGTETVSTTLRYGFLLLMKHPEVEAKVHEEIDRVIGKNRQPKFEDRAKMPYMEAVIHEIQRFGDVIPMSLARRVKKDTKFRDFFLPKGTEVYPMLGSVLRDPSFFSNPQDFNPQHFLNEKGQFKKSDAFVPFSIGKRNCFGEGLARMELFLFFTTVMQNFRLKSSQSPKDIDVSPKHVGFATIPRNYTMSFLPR
# T2: Cytochrome P450 2A5 (Mus musculus, UniProt P20852)
# T2 sequence (P20852 whole entry): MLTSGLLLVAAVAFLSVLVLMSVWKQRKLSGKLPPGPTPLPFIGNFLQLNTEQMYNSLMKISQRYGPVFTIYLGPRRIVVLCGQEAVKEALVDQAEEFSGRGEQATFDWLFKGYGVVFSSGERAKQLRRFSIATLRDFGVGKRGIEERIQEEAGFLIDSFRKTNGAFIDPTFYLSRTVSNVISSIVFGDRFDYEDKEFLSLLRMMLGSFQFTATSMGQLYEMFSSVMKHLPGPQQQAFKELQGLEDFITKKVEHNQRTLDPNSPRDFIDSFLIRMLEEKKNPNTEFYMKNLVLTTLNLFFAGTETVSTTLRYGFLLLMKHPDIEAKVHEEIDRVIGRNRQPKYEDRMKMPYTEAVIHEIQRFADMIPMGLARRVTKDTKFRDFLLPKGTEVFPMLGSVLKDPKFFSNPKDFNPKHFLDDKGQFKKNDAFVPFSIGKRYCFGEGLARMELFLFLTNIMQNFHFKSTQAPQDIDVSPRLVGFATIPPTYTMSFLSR
# T3: CYP2A6 (Homo sapiens, UniProt P11509)
# T3 sequence (P11509 whole entry): T1 sequence (P11509 whole entry)
# B1: Cytochrome P450 2A5 (Mus musculus) (protein)
# chain: T2 sequence (P20852 whole entry)
# How the values were obtained:
# [1] = target: T1, Cytochrome P450 2A6; test: Inhibitory concentration against human cytochrome P450 2A6
# [2] = target: T2, Cytochrome P450 2A5; test: Inhibitory concentration against mouse cytochrome P450 2A5
# [3] = system: CYP2A6 / CYP2A5; test: Ratio of IC50 for human CYP2A6 to that of mouse CYP2A5 was determined
# [4] = target: T3, CYP2A6; test: Michaelis-Menten constant of compound against human cytochrome P450 2A6 enzyme; format: ADME
# [5] = substrate: O=c1ccc2ccccc2o1; test: Michaelis-Menten constant of compound against mouse cytochrome P450 2A5 enzyme; format: ADME
molecule,measurement,setting,value
CC(N)Cc1ccccc1 (stereo not drawn) [AMPHETAMINE],IC50,[1],3.5 µM
same,IC50,[2],2.85 µM
COc1cc2c(cc1OC)CC(=O)CC2,IC50,[1],2000 µM
same,IC50,[2],210 µM
same,selectivity ratio,[3],9.2
Fc1ccc2ccccc2c1,IC50,[1],0.67 µM
same,IC50,[2],7.3 µM
same,selectivity ratio,[3],0.09
Cc1ccc2ccc(C)nc2c1,IC50,[1],400 µM
same,IC50,[2],180 µM
same,selectivity ratio,[3],2.2
Clc1ccc2ccccc2c1Cl,IC50,[1],15 µM
same,IC50,[2],5.5 µM
CC(=O)c1ccc2ccc(C)cc2c1,IC50,[1],6.7 µM
same,IC50,[2],4.1 µM
same,selectivity ratio,[3],1.6
Cc1ccc(C=O)cc1,IC50,[2],20.9 µM
Clc1ccc2ccccc2c1,IC50,[1],5.4 µM
same,IC50,[2],12 µM
same,selectivity ratio,[3],0.45
Cc1ccc2ccccc2n1 [QUINALDINE],IC50,[1],190 µM
same,IC50,[2],80 µM
same,selectivity ratio,[3],2.4
Cc1cccc2c(C)cccc12,IC50,[1],31 µM
same,IC50,[2],34 µM
same,selectivity ratio,[3],0.91
"CN1C(=O)CCC1c1cccnc1 (single isomer, unassigned) [COTININE]",IC50,[2],1500 µM
same,selectivity ratio,[3],42.8
O=c1ccc2ccccc2o1 [COUMARIN],Km,[4],0.74 µM
Cc1ccc2c(C)cccc2c1,IC50,[1],130 µM
same,IC50,[2],32 µM
same,selectivity ratio,[3],4
Cc1cc(C)c2ccccc2n1,IC50,[1],830 µM
same,IC50,[2],110 µM
same,selectivity ratio,[3],7.7
Clc1cccc2c(Cl)cccc12,IC50,[1],2.5 µM
same,IC50,[2],2.4 µM
same,selectivity ratio,[3],1.04
NCCc1ccccc1 [PHENETHYLAMINE],IC50,[1],38.9 µM
same,IC50,[2],1000 µM
O=Cc1ccccc1 [BENZALDEHYDE],IC50,[1],3.92 µM
same,IC50,[2],3.28 µM
Cc1cc2ccccc2cn1,IC50,[1],25 µM
same,IC50,[2],4.8 µM
same,selectivity ratio,[3],5.1
Clc1ccccc1-c1ccccc1,IC50,[1],36 µM
same,IC50,[2],13 µM
same,selectivity ratio,[3],2.8
Cc1ccc2ccc(C)cc2c1,IC50,[1],1.7 µM
same,IC50,[2],1.4 µM
Cc1ccc2cc(C)ccc2c1,IC50,[1],10 µM
same,IC50,[2],1.7 µM
same,selectivity ratio,[3],5.9
Cc1ccc(CCN)cc1,IC50,[1],5.3 µM
same,IC50,[2],4 µM
Cc1cccc2ccccc12,IC50,[1],34 µM
same,IC50,[2],24 µM
same,selectivity ratio,[3],1.4
Clc1cc2ccccc2cc1Cl,IC50,[1],> 60 µM
same,IC50,[2],60 µM
O=C1CCc2ccccc2C1,IC50,[1],21 µM
same,IC50,[2],9.7 µM
same,selectivity ratio,[3],2.2
Cc1ccc2ccccc2c1,IC50,[1],2.4 µM
same,IC50,[2],7 µM
same,selectivity ratio,[3],0.34
Oc1ccc2ccccc2c1 [BETANAPHTHOL],IC50,[1],140 µM
same,IC50,[2],78 µM
same,selectivity ratio,[3],1.8
Brc1ccc(Br)cc1,IC50,[1],59 µM
same,IC50,[2],2.2 µM
same,selectivity ratio,[3],48.5
Cc1ccc2cccc(C)c2c1,IC50,[1],31 µM
same,IC50,[2],14 µM
same,selectivity ratio,[3],1.2
Brc1ccc2ccccc2c1,IC50,[1],0.55 µM
same,IC50,[2],2.5 µM
same,selectivity ratio,[3],0.22
Cc1cnc2ccccc2c1,IC50,[1],200 µM
same,IC50,[2],100 µM
same,selectivity ratio,[3],1.9
Cc1nccc2ccccc12,IC50,[1],60 µM
same,IC50,[2],170 µM
same,selectivity ratio,[3],0.36
c1ccc2ccccc2c1 [NAPHTHALENE],IC50,[1],25 µM
same,IC50,[2],74 µM
same,selectivity ratio,[3],0.34
Clc1cc2cc(Cl)c(Cl)c(Cl)c2cc1Cl,IC50,[1],> 600 µM
same,IC50,[2],300 µM
c1ccc2c(c1)ccc1ccccc12 [PHENANTHRENE],IC50,[1],97 µM
same,IC50,[2],26 µM
same,selectivity ratio,[3],4
O=C1CCCc2ccccc21,IC50,[1],52 µM
same,IC50,[2],14 µM
same,selectivity ratio,[3],3.6
Clc1ccc(-c2ccccc2)cc1,IC50,[1],150 µM
same,IC50,[2],18 µM
same,selectivity ratio,[3],8.2
COc1ccc(C=O)cc1 [ANISALDEHYDE],IC50,[1],7.1 µM
same,IC50,[2],5.9 µM
CN1CCC[C@@H]1c1cccnc1 [R-NICOTINE],IC50,[1],580 µM
same,IC50,[2],160 µM
same,selectivity ratio,[3],3.8
CCc1ccc2ccccc2c1,IC50,[1],12 µM
same,IC50,[2],4.8 µM
same,selectivity ratio,[3],2.4
Clc1ccc2ccc(Cl)cc2c1,IC50,[1],> 100 µM
same,IC50,[2],4.4 µM
"Clc1ccc(Cl)cc1 [1,4-DICHLOROBENZENE]",IC50,[1],17 µM
same,IC50,[2],1 µM
same,selectivity ratio,[3],30.4
Oc1cccc2ccccc12 [1-NAPHTHOL],IC50,[1],130 µM
same,IC50,[2],140 µM
same,selectivity ratio,[3],0.96
Clc1cccc2ccccc12,IC50,[1],18 µM
same,IC50,[2],14 µM
same,selectivity ratio,[3],1.3
B1,Km,[5],0.64 µM
